Data from patent publication US11673866B2, “Estrogen receptor beta ligands for the prevention and treatment of multiple sclerosis (MS) and other demyelinating, inflammatory and neurodegenerative diseases” (The Board of Trustees of the University of Illinois, priority 2018, dated 2023).

Legend:
ERβ = ERβ (Homo sapiens, UniProt Q92731); experiment: Relative binding affinity (RBA) to estrogen receptor beta, radiometric measurement; details: for β/α Ratio: ratio of RBA ERβ to RBA ERα; for RBA ERβ: relative value to 100% for E2 by radiometric measurement
ERα = molecular target: T1, ERα (Homo sapiens, UniProt P03372); experiment: Relative binding affinity (RBA) to estrogen receptor alpha, radiometric measurement; details: relative value to 100% for E2 by radiometric measurement
T1 sequence (P03372 1-595): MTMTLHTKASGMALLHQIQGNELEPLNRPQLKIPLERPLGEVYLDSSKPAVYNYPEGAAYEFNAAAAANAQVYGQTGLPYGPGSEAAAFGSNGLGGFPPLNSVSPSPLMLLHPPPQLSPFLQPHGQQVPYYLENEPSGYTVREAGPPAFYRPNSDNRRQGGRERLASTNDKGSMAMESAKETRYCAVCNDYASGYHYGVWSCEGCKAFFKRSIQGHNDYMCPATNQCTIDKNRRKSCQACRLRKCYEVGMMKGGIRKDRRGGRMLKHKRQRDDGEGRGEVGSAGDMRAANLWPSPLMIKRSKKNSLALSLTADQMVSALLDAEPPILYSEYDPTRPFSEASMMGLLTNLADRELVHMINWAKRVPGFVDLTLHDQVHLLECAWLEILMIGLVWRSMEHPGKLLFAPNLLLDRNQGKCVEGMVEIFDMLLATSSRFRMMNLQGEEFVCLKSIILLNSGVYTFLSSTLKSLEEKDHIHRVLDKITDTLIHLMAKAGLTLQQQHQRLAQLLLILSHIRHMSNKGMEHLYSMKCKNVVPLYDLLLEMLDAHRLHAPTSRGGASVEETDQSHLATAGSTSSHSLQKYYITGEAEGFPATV

Sequence of ERβ (Q92731 whole entry, species assumed): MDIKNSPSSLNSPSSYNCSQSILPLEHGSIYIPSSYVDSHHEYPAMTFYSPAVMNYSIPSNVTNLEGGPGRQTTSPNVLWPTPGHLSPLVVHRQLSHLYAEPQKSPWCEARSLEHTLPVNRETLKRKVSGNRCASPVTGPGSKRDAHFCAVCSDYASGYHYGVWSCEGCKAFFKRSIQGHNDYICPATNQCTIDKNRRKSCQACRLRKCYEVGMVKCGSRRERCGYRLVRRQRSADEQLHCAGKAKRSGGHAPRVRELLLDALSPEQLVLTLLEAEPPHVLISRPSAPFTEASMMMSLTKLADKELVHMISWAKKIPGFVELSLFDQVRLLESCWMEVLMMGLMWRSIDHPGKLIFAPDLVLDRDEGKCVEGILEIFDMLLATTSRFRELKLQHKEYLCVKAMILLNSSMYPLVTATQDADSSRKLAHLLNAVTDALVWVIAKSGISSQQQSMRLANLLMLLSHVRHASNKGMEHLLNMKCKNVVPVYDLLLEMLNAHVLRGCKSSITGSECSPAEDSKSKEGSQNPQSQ

Row | β/α Ratio (ERβ) | RBA ERβ (ERβ) | RBA ERα (ERα) | SMILES
1 | 19.9 | 16.12% | 0.81% | Oc1ccc(-n2nc3ccc(O)cc3c2Br)c(Cl)c1 [IndBr-o-Cl, 3-bromo-2-(2-chloro-4-hydroxyphenyl)-2H-indazol-5-ol]
2 | 5.3 | 6.64% | 1.25% | Oc1ccc(-n2nc3ccc(O)cc3c2I)c(Br)c1 [IndI-o-Br, 2-(2-bromo-4-hydroxyphenyl)-3-iodo-2H-indazol-5-ol]
3 | 18.0 | 2.34% | 0.13% | OCc1cc(O)ccc1-n1nc2ccc(O)cc2c1Cl [IndCl-o-CH2OH, 3-chloro-2-(4-hydroxy-2-(hydroxymethyl)phenyl)-2H-indazol-5-ol]
4 | 2.0 | 0.06% | 0.03% | Oc1cc(F)c(-n2cc3cc(O)ccc3n2)c(F)c1 [IndH-o-F2, 2-(2,6-difluoro-4-hydroxyphenyl)-2H-indazol-5-ol]
5 | 3.7 | 10.39% | 2.84% | Oc1ccc(-n2nc3ccc(O)cc3c2Cl)c(C(F)(F)F)c1 [IndCl-o-CF3, 3-chloro-2-(4-hydroxy-2-(trifluoromethyl)phenyl)-2H-indazol-5-ol]
6 | 9.3 | 0.82% | 0.088% | Oc1cc(Cl)c(-n2cc3cc(O)ccc3n2)c(Cl)c1 [IndH-o-Cl2, 2-(2,6-dichloro-4-hydroxyphenyl)-2H-indazol-5-ol]
7 | 5.8 | 0.74% | 0.13% | Cc1cc(-n2nc3ccc(O)cc3c2Cl)ccc1O [IndCl-m-Me, 3-chloro-2-(4-hydroxy-3-methylphenyl)-2H-indazol-5-ol]
8 | 52.4 | 9.79% | 0.19% | Oc1ccc(-n2nc3ccc(O)cc3c2Cl)c(F)c1 [IndCl-o-F, 3-chloro-2-(2-fluoro-4-hydroxyphenyl)-2H-indazol-5-ol]
9 | 10.5 | 4.93% | 0.47% | Oc1ccc(-n2nc3ccc(O)cc3c2I)c(Cl)c1 [IndI-o-Cl, 2-(2-chloro-4-hydroxyphenyl)-3-iodo-2H-indazol-5-ol]
10 | 35.8 | 1.43% | 0.04% | OCc1c2cc(O)ccc2nn1-c1ccc(O)cc1 [Ind-CH2OH, 3-(hydroxymethyl)-2-(4-hydroxyphenyl)-2H-indazol-5-ol]
11 | 7.0 | 9.64% | 1.38% | Cc1cc(O)ccc1-n1nc2ccc(O)cc2c1I [IndI-o-Me, 2-(4-hydroxy-2-methylphenyl)-3-iodo-2H-indazol-5-ol]
12 | 10.3 | 0.31% | 0.03% | Oc1ccc(-n2nc3ccc(O)cc3c2C2SCCS2)cc1 [Ind-Thiolane, 3-(1,3-dithiolan-2-yl)-2-(4-hydroxyphenyl)-2H-indazol-5-ol]
13 | 75.7 | 10.5% | 0.14% | Oc1ccc2nn(-c3ccc(O)c(F)c3)c(Cl)c2c1 [IndCl-m-F, 3-chloro-2-(3-fluoro-4-hydroxyphenyl)-2H-indazol-5-ol]
14 | 21.1 | 2.3% | 0.11% | Oc1cc(Cl)c(-n2nc3ccc(O)c(Cl)c3c2Cl)c(Cl)c1 [IndCl-o-Cl2-4-Cl, 3,4-dichloro-2-(2,6-dichloro-4-hydroxyphenyl)-2H-indazol-5-ol]
15 | 14.9 | 8.04% | 0.54% | C=Cc1c2cc(O)ccc2nn1-c1ccc(O)cc1Br [Ind-vinyl-o-Br, 2-(2-bromo-4-hydroxyphenyl)-3-vinyl-2H-indazol-5-ol]
16 | 7.8 | 0.63% | 0.08% | Oc1ccc(-c2c3cc(O)ccc3nn2-c2ccc(O)cc2)cc1 [Ind-Ph-p-OH, 4,4′-(5-hydroxy-2H-indazole-2,3-diyl)diphenol]
17 | 2.3 | 0.61% | 0.27% | Oc1ccc(-n2nc3ccc(O)cc3c2F)c(I)c1 [IndF-o-I, 3-fluoro-2-(4-hydroxy-2-iodophenyl)-2H-indazol-5-ol]
18 | 4.0 | 1.09% | 0.27% | Oc1ccc(-n2nc3ccc(O)cc3c2F)c(Cl)c1 [IndF-o-Cl, 2-(2-chloro-4-hydroxyphenyl)-3-fluoro-2H-indazol-5-ol]
19 | 6.7 | 2.5% | 0.37% | Oc1ccc(-n2nc3ccc(O)cc3c2I)c(I)c1 [IndI-o-I, 2-(4-hydroxy-2-iodophenyl)-3-iodo-2H-indazol-5-ol]
20 | 2.5 | 0.86% | 0.34% | C=CCc1c2cc(O)ccc2nn1-c1ccc(O)cc1Br [Ind-allyl-o-Br, 3-allyl-2-(2-bromo-4-hydroxyphenyl)-2H-indazol-5-ol]
21 | 13.0 | 2.34% | 0.18% | Oc1ccc(-n2nc3ccc(O)cc3c2Cl)c(C2SCCS2)c1 [IndCl-o-Thiolane, 2-(2-(1,3-dithiolan-2-yl)-4-hydroxyphenyl)-3-chloro-2H-indazol-5-ol]
22 | 12.8 | 6.28% | 0.49% | Oc1ccc(-n2nc3ccc(O)cc3c2Br)c(I)c1 [IndBr-o-I, 3-bromo-2-(4-hydroxy-2-iodophenyl)-2H-indazol-5-ol]
